This is an account of results in patent US7314877B2, “Benzofuran derivative” (Kowa Co., Ltd., priority 2003, dated 2008).

One data set concerns TNF-α production. The experiment in a line: TNF-α production inhibitory effect in LPS-stimulated RAW264.7 cells (ELISA). The class given is cell-based. Particulars: Mus musculus, 8 h, lipopolysaccharide 1 μg/mL, eight hours incubation, TNF-α in culture supernatant by ELISA. As for the experimental part: Method for Determining TNF-α Production Inhibitory Effect
RAW264.7 cells were suspended in a DMEM medium supplemented with 10% fetal bovine serum (FBS), and the suspension was seeded in wells of a 24-well plate (5×10^5/mL/well). Each test compound (0 to 10 μM) was added to the wells, and the mixture was incubated in a CO2 incubator for 30 minutes. Subsequently, lipopolysaccharide was added to the mixture in an amount of 1 μg/mL, and incubation was further performed in a CO2 incubator for eight hours. Eight hours after the start of incubation, the culture supernatant was collected, and the amount of TNF-α contained in the culture broth was determined through ELISA. IC50 value was determined through comparison with the amount of produced TNF-α in the drug-free (blank) case.
(In general: In an ELISA, binding on a coated surface is turned into a signal by an enzyme label.)

Data set [1] is described as follows: Test on absorption after oral administration in mouse. The class given is in vivo. Particulars: male ICR mouse, 10 mg/kg oral, suspension in 0.5% HPMC, plasma at 0.25, 0.5, 1 and 4 hours, HPLC; FIG. 1. As for the experimental part:
Test on Absorption after Oral Administration in Mouse Each of the test compounds (Examples 7, 10, and 13) was suspended in 0.5% HPMC in a mortar. The suspension was orally administered to each male ICR mouse (6 weeks old) in an amount of 10 mg/kg. At each time of 0.25, 0.5, 1, and 4 hours after oral administration, a blood sample was collected and centrifuged, whereby a plasma sample was prepared. The level of the test compound in the plasma sample was determined through HPLC.

SMILES strings stand for the structures.

`CN1CCN(Cc2cc(-c3ccc4c(c3)CCO4)nn(CC3CC3)c2=O)CC1` [Example 1, 2-cyclopropylmethyl-6-(2,3-dihydro-1-benzofuran-5-yl)-4-(4-methyl-1-piperazinyl)methyl-2H-pyridazin-3-one]: the melting point (in general, the temperature, or range, at which the solid turns liquid) was 128 to 130 °C. Further, the IC50 (commonly the concentration that gives 50% inhibition) with TNF-α production came to 8.9 µM.

`CN(C)Cc1cc(-c2ccc3c(c2)CCO3)nn(CC2CC2)c1=O` [Example 3, 2-cyclopropylmethyl-6-(2,3-dihydro-1-benzofuran-5-yl)-4-dimethylaminomethyl-2H-pyridazin-3-one] registered a melting point of 109 to 110 °C.

`CN1CCN(Cc2cc(-c3ccc4c(c3)CCO4)nn(Cc3ccc(F)cc3)c2=O)CC1` [Example 6, 2-(4-fluorobenzyl)-6-(2,3-dihydro-1-benzofuran-5-yl)-4-(4-methyl-1-piperazinyl)methyl-2H-pyridazin-3-one] yielded a melting point of 179 to 180 °C. Inhibition in the data set with TNF-α production was half-maximal at 3.1 µM (IC50).

Turning to `CN1CCN(Cc2cc(-c3ccc4c(c3)CCO4)nn(Cc3ccc(F)cc3)c2=O)CC1.Cl.Cl` [Example 7, 2-(4-fluorobenzyl)-6-(2,3-dihydro-1-benzofuran-5-yl)-4-(4-methyl-1-piperazinyl)methyl-2H-pyridazin-3-one dihydrochloride], the melting point was 201 to 204 °C (dec.). Besides, the “absorption after oral administration (level of test compound in plasma)” value (“absorption after oral administration” for short) in data set [1] is given as “good absorbability”.

As for `CN1CCN(Cc2cc(-c3ccc4c(c3)CCO4)nn(Cc3ccc(Cl)cc3)c2=O)CC1` [Example 8, 2-(4-chlorobenzyl)-6-(2,3-dihydro-1-benzofuran-5-yl)-4-(4-methyl-1-piperazinyl)methyl-2H-pyridazin-3-one], the melting point was 149 to 150 °C.

The compound `CN1CCN(Cc2cc(-c3ccc4c(c3)CCO4)nn(CC=Cc3ccc(Cl)cc3)c2=O)CC1` [Example 9, 2-(4-chlorocinnamyl)-6-(2,3-dihydro-1-benzofuran-5-yl)-4-(4-methyl-1-piperazinyl)methyl-2H-pyridazin-3-one] yielded a melting point of 112 to 113 °C. 4.2 µM corresponded to half-maximal inhibition with TNF-α production (IC50).

For the compound `CN1CCN(Cc2cc(-c3ccc4c(c3)CCO4)nn(CC=Cc3ccc(Cl)cc3)c2=O)CC1.Cl.Cl` [Example 10, 2-(4-chlorocinnamyl)-6-(2,3-dihydro-1-benzofuran-5-yl)-4-(4-methyl-1-piperazinyl)methyl-2H-pyridazin-3-one dihydrochloride], the “absorption after oral administration” value in data set [1] is listed as “good absorbability”.

`CN1CCN(Cc2cc(-c3ccc4occc4c3)nn(Cc3ccc(F)cc3)c2=O)CC1` [Example 11, 6-(1-benzofuran-5-yl)-2-(4-fluorobenzyl)-4-(4-methyl-1-piperazinyl)methyl-2H-pyridazin-3-one] showed a melting point of 128 to 130 °C.

The compound `CN1CCN(Cc2cc(-c3ccc4c(c3)CCO4)nn(CCCc3ccccc3Cl)c2=O)CC1` [Example 12, 2-[3-(2-chlorophenyl)propyl]-6-(2,3-dihydro-1-benzofuran-5-yl)-4-(4-methyl-1-piperazinyl)methyl-2H-pyridazin-3-one] yielded a 50% inhibitory concentration (IC50) in the data set with TNF-α production of 2.2 µM.

For the compound `CN1CCN(Cc2cc(-c3ccc4c(c3)CCO4)nn(CCCc3ccccc3Cl)c2=O)CC1.Cl.Cl` [Example 13, 2-[3-(2-chlorophenyl)propyl]-6-(2,3-dihydro-1-benzofuran-5-yl)-4-(4-methyl-1-piperazinyl)methyl-2H-pyridazin-3-one dihydrochloride], the “absorption after oral administration” value in data set [1] is listed as “good absorbability”.

`CN1CCN(Cc2cc(-c3ccc4c(c3)CCO4)nn(Cc3ccccc3Cl)c2=O)CC1` [Example 17, 2-(2-chlorobenzyl)-6-(2,3-dihydro-1-benzofuran-5-yl)-4-(4-methyl-1-piperazinyl)methyl-2H-pyridazin-3-one] registered a melting point of 141.4 to 142.1 °C. For the same compound, the IC50 in the data set on TNF-α production was 7.5 µM.

Turning to `NCc1cc(-c2ccc3c(c2)CCO3)nn(Cc2ccccc2Cl)c1=O` [Example 18, 4-aminomethyl-2-(2-chlorobenzyl)-6-(2,3-dihydro-1-benzofuran-5-yl)-2H-pyridazin-3-one], the melting point was 120.1 to 122.8 °C. This compound also registered an IC50 with TNF-α production of 7.5 µM.
